{"source": "patent US20110319461A1", "about": "“NOVEL SALTS, POLYMORPHS, AND SYNTHETIC PROCESSES REGARDING IMIDAZOLE DERIVATIVE” (Ore Pharmaceuticals Inc., priority 2010, published 2011)", "key": {"[1]": {"tested_on": "acute dextran sodium sulfate-induced colitis in mice", "test": "Acute dextran sodium sulfate (DSS)-induced colitis", "type": "in vivo", "conditions": "for DSS-induced colon shortening: high dose Compound (I) and sulfasalazine", "excerpt": "2-[1-(S)-carboxy-2(S)-[3-(3,5-dichloro-benzyl)-3H-imidazol-4-yl]-ethylamino]-4-methyl-pentanoic acid, herein also referred to as Compound (I), is described in U.S. Pat. No. 6,632,830, U.S. Pat. No. 7,045,532, and WO 00/066104, each herein incorporated by reference in their entirety. Additionally, Compound (I) is discussed in “Substrate-Based Design of the First Class of Angiotensin-Converting Enzyme-Related Carboxypeptidase (ACE2) Inhibitors”, Dales, N. A., et al., J. Amer. Chem. Soc., 2002, 124, 11852-11853, incorporated by reference. As reported by Byrnes et al., Effects of the ACE2 inhibitor GL1001 on acute dextran sodium sulfate-induced colitis in mice, Inflamm. […] Doses of Compound (I) ameliorated DSS-induced disease activity, including rectal prolapsed and intestinal bleeding. […] Compound (I) provides therapeutic potential for inflammatory bowel disease.\nExposure to DSS prior to vehicle treatment (vehicle+DSS group) produced a time-dependent decrease in body weight that recovered by day 15. This body weight loss and recovery was similar in animals having received repeated doses of Compound (I) (300 mg/kg).\nDisease activity index (DAI), namely rectal prolapsed, stool consistency, and fecal occult blood) was assessed every other day throughout the experiment. By experimental day 7, significant DSS-induced disease began to emerge, and trends toward recovery were observed by day 11. Statistical analyses were conducted on data obtained on the days of peak severity: day 7 (presence of fecal blood and diarrhea) and day 9 (rectal prolapse). All DAI data were analyzed by one-way ANOVA. Compared to non-DSS controls, DSS treatment markedly elevated scores for fecal occult blood, stoll consistency, and rectal prolapsed. These effects were attenuated by Compound (I) (300 mg/kg).\nOn experimental day 15, colon was obtained from each animal and length was measured. […] No effects of 30 or 100 mg/kg on DSS-induced colon shrinkage were observed (P>0.05 for all). Total histopathology score (inflammation+glandular epithelial loss+mucosal erosion) for each treatment group is represented with a maximum obtainable score of 15. One-way ANOVA indicated significant DSS_induced damage (vs. non-DSS control) in each region studied, with the most damage occurring in the distal colon."}, "[2]": {"test": "Storage stability of the drug substance", "type": "physicochemical"}, "ACE2": {"biological_target": "ACE2 (Homo sapiens, UniProt Q9BYF1)", "sequence (Q9BYF1 18-805)": "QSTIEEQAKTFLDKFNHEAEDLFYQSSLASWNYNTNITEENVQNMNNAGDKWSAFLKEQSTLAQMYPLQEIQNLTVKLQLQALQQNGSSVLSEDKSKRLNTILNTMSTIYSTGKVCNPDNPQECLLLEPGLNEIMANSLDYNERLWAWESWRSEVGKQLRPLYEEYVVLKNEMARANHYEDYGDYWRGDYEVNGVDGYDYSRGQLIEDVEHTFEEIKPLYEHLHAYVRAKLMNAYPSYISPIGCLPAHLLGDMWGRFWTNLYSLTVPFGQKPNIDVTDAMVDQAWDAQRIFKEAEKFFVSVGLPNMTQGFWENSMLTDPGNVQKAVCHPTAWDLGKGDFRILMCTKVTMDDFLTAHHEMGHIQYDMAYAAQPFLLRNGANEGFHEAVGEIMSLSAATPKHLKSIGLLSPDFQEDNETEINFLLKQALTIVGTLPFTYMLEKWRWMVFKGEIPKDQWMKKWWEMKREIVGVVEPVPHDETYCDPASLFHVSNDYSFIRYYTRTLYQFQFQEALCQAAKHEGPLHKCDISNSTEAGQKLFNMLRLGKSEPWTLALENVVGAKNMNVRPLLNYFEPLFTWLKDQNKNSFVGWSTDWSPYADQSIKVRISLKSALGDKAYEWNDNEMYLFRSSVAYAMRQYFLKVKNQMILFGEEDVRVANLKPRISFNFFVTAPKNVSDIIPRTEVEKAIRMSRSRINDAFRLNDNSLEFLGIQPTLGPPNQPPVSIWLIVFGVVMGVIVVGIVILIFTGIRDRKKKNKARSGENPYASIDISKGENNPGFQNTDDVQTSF", "conditions": "cited from earlier work"}, "[3]": {"tested_on": "upper gastrointestinal tract of the mouse", "test": "Anti-inflammatory effects in the upper gastrointestinal tract", "type": "in vivo"}, "ACE": {"biological_target": "ACE (Homo sapiens, UniProt P12821)", "sequence (P12821 1-732 isoform P12821-3)": "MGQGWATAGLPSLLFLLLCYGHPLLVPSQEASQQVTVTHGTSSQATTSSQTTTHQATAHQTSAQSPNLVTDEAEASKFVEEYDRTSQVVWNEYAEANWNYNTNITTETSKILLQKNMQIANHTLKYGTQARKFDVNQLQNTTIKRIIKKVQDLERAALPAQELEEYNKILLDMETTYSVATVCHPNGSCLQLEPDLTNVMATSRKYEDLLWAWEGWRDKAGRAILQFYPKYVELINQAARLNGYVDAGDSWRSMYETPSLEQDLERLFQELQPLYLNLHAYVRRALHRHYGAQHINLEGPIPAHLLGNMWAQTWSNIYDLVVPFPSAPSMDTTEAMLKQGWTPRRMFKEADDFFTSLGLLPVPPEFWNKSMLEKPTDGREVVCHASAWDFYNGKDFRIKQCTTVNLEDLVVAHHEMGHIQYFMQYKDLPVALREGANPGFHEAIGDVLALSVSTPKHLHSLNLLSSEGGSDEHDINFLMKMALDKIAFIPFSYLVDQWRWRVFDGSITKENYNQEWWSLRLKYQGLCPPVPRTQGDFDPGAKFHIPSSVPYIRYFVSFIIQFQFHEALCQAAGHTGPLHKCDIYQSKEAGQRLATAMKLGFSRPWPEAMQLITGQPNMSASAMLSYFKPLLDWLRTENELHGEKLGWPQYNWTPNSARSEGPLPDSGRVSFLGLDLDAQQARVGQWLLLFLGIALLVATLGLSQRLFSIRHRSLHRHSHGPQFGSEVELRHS", "conditions": "per Dales et al.; read-out: IC50 against ACE (selectivity); cited from earlier work"}, "[4]": {"tested_on": "acute dextran sodium sulfate-induced colitis in mice", "conditions": "as reported by Byrnes et al., cited from earlier work"}, "CPDA": {"biological_target": "T1, CPDA (Bos taurus, UniProt P00730)", "T1 sequence (P00730 111-419)": "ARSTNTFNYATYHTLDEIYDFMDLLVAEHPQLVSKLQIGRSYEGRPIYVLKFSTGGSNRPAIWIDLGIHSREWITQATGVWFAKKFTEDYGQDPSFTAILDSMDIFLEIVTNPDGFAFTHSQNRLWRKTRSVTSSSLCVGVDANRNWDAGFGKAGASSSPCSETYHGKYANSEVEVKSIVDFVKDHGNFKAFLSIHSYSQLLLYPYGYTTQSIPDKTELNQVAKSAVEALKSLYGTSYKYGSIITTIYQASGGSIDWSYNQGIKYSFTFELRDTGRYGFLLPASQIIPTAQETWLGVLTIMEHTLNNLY", "conditions": "per Dales et al.; read-out: IC50 against CPDA (selectivity); cited from earlier work"}, "[5]": {"tested_on": "NSAID-induced gastric damage in rats", "test": "NSAID-induced gastric damage", "type": "in vivo"}, "Water solubility": {"test": "Water solubility", "type": "physicochemical"}, "[6]": {"conditions": "profound effect in the distal segment"}}, "note": "Where two headings read alike, the source gives them in different places."}
{"smiles": "O=C(O)c1cc(/N=N/c2ccc(S(=O)(=O)Nc3ccccn3)cc2)ccc1O", "note": "[sulfasalazine, reference compound]", "values": [{"measurement": "rectal prolapse and bleeding (DAI)", "setting": "[1]; 150 mg/kg, compared with Compound (I) 300 mg/kg", "value": "similarly efficacious"}, {"measurement": "DSS-induced colon shortening", "setting": "[1]; day 15", "value": "reversed"}, {"measurement": "body weight recovery compared with vehicle+DSS and Compound (I) 300 mg/kg groups", "setting": "[1]; sulfasalazine-treated animals, day 15", "value": "did not recover to the same extent by day 15"}]}
{"smiles": "CC(C)C[C@H](N[C@@H](Cc1cncn1Cc1cc(Cl)cc(Cl)c1)C(=O)[O-])C(=O)[O-].[Na+].[Na+]", "note": "[disodium salt anhydrate]", "values": [{"measurement": "stability", "setting": "[2]; ambient temperatures", "value": "unstable, thermally sensitive, and subject to oxidation at ambient temperatures"}]}
{"smiles": "CC(C)C[C@@H](N[C@H](Cc1cncn1Cc1cc(Cl)cc(Cl)c1)C(=O)O)C(=O)O", "note": "[R,R isomer, 2-[1-(R)-carboxy-2(R)-[3-(3,5-dichloro-benzyl)-3H-imidazol-4-yl]-ethylamino]-4-methylpentanoic acid, reference compound]", "values": [{"measurement": "IC50", "setting": "ACE2; stereoisomers of Compound (I), per Dales et al., read-out: activity of the isomer (ACE2 inhibition)", "value": "> 50", "unit": "µM"}]}
{"smiles": "CC(C)C[C@H](N[C@@H](Cc1cncn1Cc1cc(Cl)cc(Cl)c1)C(=O)O)C(=O)O", "note": "[Compound (I), 2-[1-(S)-carboxy-2(S)-[3-(3,5-dichloro-benzyl)-3H-imidazol-4-yl]-ethylamino]-4-methylpentanoic acid]", "values": [{"measurement": "anti-inflammatory effects in the upper gastrointestinal tract", "setting": "[3]", "value": "exhibits anti-inflammatory effects"}, {"measurement": "IC50", "setting": "ACE", "value": "> 50", "unit": "µM"}, {"measurement": "DSS-induced disease activity, including rectal prolapse and intestinal bleeding", "setting": "[4]", "value": "ameliorated"}, {"measurement": "colon pathology", "setting": "[4]; [6]", "value": "markedly attenuated"}, {"measurement": "myeloperoxidase activity", "setting": "[4]; [6]", "value": "markedly attenuated"}, {"measurement": "body weight recovery", "setting": "[1]; 30 mg/kg, by day 15", "value": "compete recovery by day 15"}, {"measurement": "body weight loss and recovery compared with vehicle+DSS group", "setting": "[1]; 300 mg/kg repeated b.i.d., days 5-15", "value": "similar"}, {"measurement": "disease activity index (fecal occult blood, stool consistency, rectal prolapse) elevated by DSS", "setting": "[1]; 300 mg/kg, day 7 and day 9", "value": "attenuated"}, {"measurement": "DSS-induced damage in the distal colon (total histopathology score)", "setting": "[1]; 300 mg/kg, day 15", "value": "significantly attenuated"}, {"measurement": "body weight reduction", "setting": "[1]; 30 and 100 mg/kg, maximum effects on day 9", "value": "exhibited the largest weight reduction"}, {"measurement": "effect on any DAI parameter", "setting": "[1]; 30 or 100 mg/kg, all P>0.05", "value": "no effects were observed"}, {"measurement": "DSS-induced colon shrinkage", "setting": "[1]; day 15, 30 or 100 mg/kg, P>0.05", "value": "No effects"}, {"measurement": "DSS-induced colon shortening", "setting": "[1]; day 15", "value": "reversed"}, {"measurement": "IC50", "setting": "CPDA", "value": "> 50", "unit": "µM"}, {"measurement": "long-term stability / degradation", "setting": "[2]; ambient temperature and humidity, 7 years", "value": "no apparent degradation"}, {"measurement": "protection against NSAID-induced gastric damage", "setting": "[5]", "value": "protects against NSAID-induced gastric damage"}, {"measurement": "ACE2 inhibitor potency and selectivity", "setting": "ACE2", "value": "potent and selective"}, {"measurement": "water solubility", "setting": "Water solubility", "value": "excellent"}, {"measurement": "water solubility", "setting": "Water solubility; listed as dicarboxylic acid", "value": "limited"}]}
